Measured values taken from patent publication US20060079568A1, “Inhibition of atherosclerosis by diindolylmethane analogs” (The Texas A&M University System, priority 2004, published 2006).
“Also recorded” adds a separate entry of the source.

How the values were obtained:
HUVECs = assay: Treatment of unstimulated HUVECs: apoptosis and baseline ICAM-1 expression; conditions: up to 10 μmol/L, HUVECs without TNF-α (data not shown)
IL-6 = IL-6 production in supernatants of TNF-α-stimulated HUVECs, ELISA; format: cell-based, human; conditions: for IL-6 level in supernatant after TNF-α stimulation: 10 μmol/L pretreatment 6 hours, then 5 ng/ml TNF-α 6 hours, TNF-α alone 228±12.7, baseline 52.8±7.5; for effect on TNF-α-induced IL-6 production (in words): 10 μmol/L pretreatment, 5 ng/ml TNF-α
Description: (§1) In order to measure chemokine levels in the cell supernatant, HUVECs cultured in 24-well plates were preincubated for 6 hours with one of the three p-substituted phenyl DIM analogs at the concentrations indicated or with vehicle and then stimulated with 5 ng/ml TNF-α. For comparison, HUVECs were also preincubated with ciglitazone or 15d-PGJ2 at the same concentrations and then stimulated with TNF-α at a concentration of 5 ng/ml. Cell culture supernatants were collected 6 and 24 hours after the stimulation for analysis of IL-6 and MCP-1, respectively.
(§2) The levels of IL-6 and MCP-1 were quantified using commercial ELISA kits (BioSource International, Camarillo, Calif.) according to the manufacturer's directions. The minimum detectable concentration of the assay was 2 pg/ml for IL-6 and <20 pg/ml for MCP-1. All experiments were performed in triplicate.
(§3) To determine the effects of the three p-substituted phenyl DIM analogs on TNF-α-induced chemokine production in HUVECs, cells were pretreated for 6 hours with one of the three analogs at the concentrations indicated or with vehicle and then stimulated with 5 ng/ml TNF-α for the indicated time before the chemokine assays were performed.

MCP-1 = MCP-1 production in supernatants of TNF-α-stimulated HUVECs, ELISA; format: cell-based, human; conditions: for MCP-1 level in supernatant after TNF-α stimulation: 10 μmol/L pretreatment 6 hours; for effect on TNF-α-induced MCP-1 production (in words): 10 μmol/L pretreatment, 5 ng/ml TNF-α
Description: as §1, §2, §3

ICAM-1 = assay: TNF-α-induced cell surface expression of ICAM-1 in HUVECs measured by FACS; format: cell-based, human; conditions: then 5 ng/ml TNF-α; for reduction of TNF-α-induced ICAM-1 expression: 10 μmol/L pretreatment 6 hours, vs TNF-α-stimulated control cells; for effect on TNF-α-induced ICAM-1 expression (in words): pretreatment 6 hours (up to 10 μmol/L)
Description: The expression of ICAM-1 on the cell surface was determined in HUVECs cultured in six-well plates pretreated with one of the three different p-substituted phenyl DIM analogs or with vehicle (0.1% DMSO) at the concentrations indicated. Their effects were compared with those of other PPARγ agonists by preincubating HUVECs with ciglitazone (Biomol, Plymouth meeting, Pa.) or 15d-PGJ2 (Calbiochem, San Diego, Calif.) at the same doses.
After 6 hours, cells were incubated with TNF-α (R&D Systems, Minneapolis, Minn.) at a concentration of 5 ng/ml for 12 hours. Cells were then detached with 10 mmol/L EDTA in 0.5% phosphate-buffered saline, collected by centrifugation, and stained for 30 minutes on ice in the dark with R-phycoerythrin-labeled monoclonal antibody against ICAM-1 (CD54) or with the appropriate R-phycoerythrin-labeled isotype IgG (Pharmingen, San Diego, Calif.) as a control.
The fluorescence intensity of 10,000 gated viable cells was analyzed for each sample on a FACSCalibur Flow Cytometer (Becton Dickinson Immunocytometry Systems, San Diego, Calif.) using Cell Quest (Becton Dickinson) acquisition software. All experiments were performed in triplicate.

PPAR-γ = target: T1, PPAR-γ (Homo sapiens, UniProt P37231); conditions: earlier structure-activity studies [5]; cited from earlier work
T1 sequence (P37231 1-505): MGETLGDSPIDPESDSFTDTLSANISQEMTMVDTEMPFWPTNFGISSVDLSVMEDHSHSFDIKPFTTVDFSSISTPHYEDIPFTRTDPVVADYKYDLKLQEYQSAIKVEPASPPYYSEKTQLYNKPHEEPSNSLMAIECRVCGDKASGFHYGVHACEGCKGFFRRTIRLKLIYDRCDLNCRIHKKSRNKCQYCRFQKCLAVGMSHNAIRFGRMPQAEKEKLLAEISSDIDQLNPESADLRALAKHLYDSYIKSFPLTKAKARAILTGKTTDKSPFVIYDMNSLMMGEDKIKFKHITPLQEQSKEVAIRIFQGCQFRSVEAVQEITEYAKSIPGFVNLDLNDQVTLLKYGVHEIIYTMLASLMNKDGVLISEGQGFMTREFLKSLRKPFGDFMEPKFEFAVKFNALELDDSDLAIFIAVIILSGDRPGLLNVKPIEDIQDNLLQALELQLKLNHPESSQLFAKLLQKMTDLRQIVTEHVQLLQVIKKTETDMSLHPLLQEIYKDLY

[1] = then 5 ng/ml TNF-α 24 hours, TNF-α alone 7.8±0.19, baseline 1.05±0.07

SMILES | change of baseline expression of ICAM-1 (HUVECs) | IL-6 level in supernatant after TNF-α stimulation (IL-6) | effect on TNF-α-induced IL-6 production (in words) (IL-6) | MCP-1 level in supernatant after TNF-α stimulation (MCP-1; then 5 ng/mL TNF-α, comparison agonists) | effect on TNF-α-induced MCP-1 production (in words) (MCP-1) | reduction of TNF-α-induced ICAM-1 expression (ICAM-1) | effect on TNF-α-induced ICAM-1 expression (in words) (ICAM-1) | PPAR-γ agonist activity (PPAR-γ) | MCP-1 level in supernatant after TNF-α stimulation (MCP-1; [1]) | induction of apoptosis (HUVECs)
CCCCC/C=C/C=C1/C(=O)C=C[C@@H]1C/C=C\CCCC(=O)O [15d-PGJ2, 15-deoxy-δ^12,14-prostaglandin J2, reference compound] | did not induce apoptosis or change the baseline expression of ICAM-1 | 29.8 ± 1.6 pg/mL | significantly inhibited | 1.5 ± 0.3 ng/mL | significantly inhibited | 84.4% | significantly inhibited; also recorded: decreased | – | – | –
c1ccc(-c2ccc(C(c3c[nH]c4ccccc34)c3c[nH]c4ccccc34)cc2)cc1 [DIM-C-pPhC6H5, 1,1-bis(3′-indolyl)-1-(p-biphenyl) methane] | – | 143.4 ± 12.2 pg/mL | inhibited | – | inhibited | 71.3% | inhibited; also recorded: decreased | potent; also recorded: active agents | 2.2 ± 0.49 ng/mL | –
Cc1ccc(C(c2c[nH]c3ccccc23)c2c[nH]c3ccccc23)cc1 [DIM-C-pPhCH3] | – | – | lower activity; also recorded: did not decrease; also recorded: did not significantly inhibit | – | lower activity; also recorded: did not decrease; also recorded: did not affect | 32% | lower activity; also recorded: inactive | less active; also recorded: low PPAR-γ agonist activity; also recorded: relatively inactive | – | –
CC(C)(C)c1ccc(C(c2c[nH]c3ccccc23)c2c[nH]c3ccccc23)cc1 [DIM-C-pPhtBu, 1,1-bis(3′-indolyl)-1-(p-t-butylphenyl) methane] | – | 130.3 ± 19.3 pg/mL | inhibited | – | inhibited | 77.5% | inhibited; also recorded: decreased the expression of ICAM-1 in a concentration-dependent manner | potent; also recorded: active agents | 3.9 ± 0.41 ng/mL | –
CC1(COc2ccc(CC3SC(=O)NC3=O)cc2)CCCCC1 (stereo not shown) [ciglitazone, reference compound] | – | 207 ± 13 pg/mL | inactive | – | inactive | – | inactive; also recorded: no inhibitory effect | – | – | did not induce apoptosis
